In patent publication US20110015226A1, “Treatment of Energy Utilization Disease” (SUMMIT CORPORATION PLC, priority 2008, published 2011):

Tests used:
Type in all cases: biochemical
[1] = target: T1, α-D-glucosidase (Yeast) (Saccharomyces cerevisiae, UniProt P53341); test: Glycosidase inhibition: α-D-glucosidase (Yeast); settings: compounds tested at 0.8 mM
T1 construct: purchased Sigma
From the text: (§1) The results tabulated below were obtained using commercially available glycosidases and p-nitrophenyl-substrates using standard methods described for example by Watson et al (1997) Phytochemistry 46 255-259. All enzymes and substrates were bought from Sigma. Enzyme and substrate solutions were made using sodium phosphate buffers at the pH optima values. The enzymes used were α-D-glucosidase Saccharomyces cerevisiae, Bacillus stearothermophilus, Oryzae sativa), β-D-glucosidase (Almond), α-D-mannosidase (Jack bean), α-D-galactosidase (Green coffee beans), β-D-galactosidase (Bovine liver), α-L-fucosidase (Bovine kidney), N-acetyl-β-D-glucosaminidase (Bovine kidney, Jack bean, Aspergillus oryzae), Naringinase (Penicillium decumbens) and amyloglucosidase (Aspergillus niger). All enzymes were used with the appropriate p-nitrophenyl substrates (5 mM). Amyloglucosidase activity was measured using amylopectin (0.1%) (Merck) mixed with sodium phosphate buffer, pH 4.5 in a glass bottle, and healed in a boiling water bath for 20 minutes to dissolve with released glucose measured using ‘Trinder’ glucose detection solution (Sigma).
(§2) All enzymes and para-nitrophenyl substrates were purchased from Sigma, with the exception of beta-mannosidase which came from Megazyme. Enzymes were assayed at 27° C. in 0.1M citric acid/0.2M disodium hydrogen phosphate buffers at the optimum pH for the enzyme. The incubation mixture consisted of 10 μl enzyme solution, 10 μl of 1 mg/ml aqueous solution of extract and 50 μl of the appropriate 5 mM para-nitrophenyl substrate made up in buffer at the optimum pH for the enzyme. The reactions were stopped by addition of 70 μl 0.4M glycine (pH 10.4) during the exponential phase of the reaction, which had been determined at the beginning using uninhibited assays in which water replaced inhibitor. Final absorbances were read at 405 nm using a Versamax microplate reader (Molecular Devices). Assays were carried out in triplicate, and the values given are means of the three replicates per assay. (See Watson, A. A., Nash, R. J., Wormald, M. R., Harvey, D. J., Dealler, S., Lees, E., Asano, N., Kizu, H., Kato, A., Griffiths, R. C., Cairns, A. J. and Fleet, G. W. J. (1997). Glycosidase-inhibiting pyrrolidine alkaloids from Hyacinthoides non-scripta. Phytochemistry 46 (2): 255-259.)

[2] = target: α-D-glucosidase (Bacillus) (Geobacillus stearothermophilus, UniProt A0ACH1E9U3); test: Glycosidase inhibition: α-D-glucosidase (Bacillus); settings: compounds tested at 0.8 mM
From the text: as §1, §2

[3] = target: T2, α-D-glucosidase (Rice) (Oryza sativa subsp. japonica, UniProt Q653V7); test: Glycosidase inhibition: α-D-glucosidase (Rice)
T2 construct: purchased Sigma

[4] = target: T3, α-D-galactosidase Green coffee bean (Coffea arabica, UniProt Q42656); test: Glycosidase inhibition: α-D-galactosidase Green coffee bean; settings: compounds tested at 0.8 mM
T3 construct: α-D-galactosidase (Green coffee beans); purchased Sigma; host or cells: green coffee beans
From the text: as §1, §2

[5] = target: T4, α-L-fucosidase Bovine kidney (Bos taurus, UniProt Q2KIM0); test: Glycosidase inhibition: α-L-fucosidase Bovine kidney; settings: compounds tested at 0.8 mM
T4 construct: α-L-fucosidase (Bovine kidney); purchased Sigma; host or cells: bovine kidney
T4 sequence (Q2KIM0 23-468): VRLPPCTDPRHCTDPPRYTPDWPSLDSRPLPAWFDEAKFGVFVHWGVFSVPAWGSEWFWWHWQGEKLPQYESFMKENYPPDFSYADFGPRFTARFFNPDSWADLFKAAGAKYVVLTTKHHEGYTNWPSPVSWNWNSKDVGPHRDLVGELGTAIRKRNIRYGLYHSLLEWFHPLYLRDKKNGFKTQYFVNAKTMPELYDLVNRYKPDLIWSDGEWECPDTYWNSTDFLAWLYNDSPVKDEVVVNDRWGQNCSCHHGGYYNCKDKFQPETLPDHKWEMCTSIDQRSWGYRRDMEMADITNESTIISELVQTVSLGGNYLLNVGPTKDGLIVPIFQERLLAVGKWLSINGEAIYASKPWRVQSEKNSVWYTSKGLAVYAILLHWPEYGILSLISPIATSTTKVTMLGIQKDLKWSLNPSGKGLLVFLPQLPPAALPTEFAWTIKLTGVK

[6] = target: T5, α-D-mannosidase Jack bean (Canavalia ensiformis, UniProt C0HJB3); test: Glycosidase inhibition: α-D-mannosidase Jack bean; settings: compounds tested at 0.8 mM
T5 construct: α-D-mannosidase (Jack bean); purchased Sigma
T5 sequence (C0HJB3 1-981): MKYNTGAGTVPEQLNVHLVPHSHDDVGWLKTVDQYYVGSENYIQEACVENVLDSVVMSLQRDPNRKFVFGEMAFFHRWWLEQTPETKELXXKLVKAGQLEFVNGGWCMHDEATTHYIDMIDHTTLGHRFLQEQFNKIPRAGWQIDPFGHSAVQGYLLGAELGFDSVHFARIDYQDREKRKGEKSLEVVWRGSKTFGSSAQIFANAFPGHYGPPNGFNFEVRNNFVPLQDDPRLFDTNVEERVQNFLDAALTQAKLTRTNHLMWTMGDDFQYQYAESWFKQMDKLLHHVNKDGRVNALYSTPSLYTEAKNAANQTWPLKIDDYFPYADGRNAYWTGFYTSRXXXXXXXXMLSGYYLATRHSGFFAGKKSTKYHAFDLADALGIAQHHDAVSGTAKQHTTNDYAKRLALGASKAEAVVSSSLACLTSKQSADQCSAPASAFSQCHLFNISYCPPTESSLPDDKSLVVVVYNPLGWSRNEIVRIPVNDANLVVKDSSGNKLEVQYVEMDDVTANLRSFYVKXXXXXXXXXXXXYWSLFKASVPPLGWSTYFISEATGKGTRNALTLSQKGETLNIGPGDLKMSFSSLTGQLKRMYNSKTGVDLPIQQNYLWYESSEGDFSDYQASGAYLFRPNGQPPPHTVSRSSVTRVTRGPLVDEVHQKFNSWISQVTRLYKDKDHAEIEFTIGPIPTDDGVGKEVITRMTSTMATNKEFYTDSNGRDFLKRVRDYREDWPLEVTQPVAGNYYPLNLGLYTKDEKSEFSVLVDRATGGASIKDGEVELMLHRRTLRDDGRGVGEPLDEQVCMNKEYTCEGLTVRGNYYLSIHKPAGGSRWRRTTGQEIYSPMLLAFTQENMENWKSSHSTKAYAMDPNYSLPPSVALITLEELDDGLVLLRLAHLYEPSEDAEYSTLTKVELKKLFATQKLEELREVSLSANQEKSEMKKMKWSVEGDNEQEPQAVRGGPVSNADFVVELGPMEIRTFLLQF

[7] = test system: N-acetyl-β-D-glucosaminidase (Bovine kidney); test: Glycosidase inhibition: N-acetyl-β-D-glucosaminidase (Bovine kidney);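 also: enzyme activity followed by cleavage of the matching p-nitrophenyl glycoside (5 mM) in phosphate buffer set to the enzyme's optimal pH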
[8] = target: T6, N-acetyl-β-D-glucosaminidase (A. oryzae) (Aspergillus oryzae, UniProt Q8J2T0); test: Glycosidase inhibition: N-acetyl-β-D-glucosaminidase (A. oryzae); settings: compounds tested at 0.8 mM
T6 construct: purchased Sigma
From the text: as §1, §2

[9] = target: T7, Amyloglucosidase Aspergillus niger (Aspergillus niger, UniProt P69328); test: Glycosidase inhibition: Amyloglucosidase Aspergillus niger; settings: compounds tested at 0.8 mM
T7 construct: purchased Sigma
From the text: as §1, §2

[10] = target: T8, β-Glucuronidase Bovine liver (Bos taurus, UniProt A3KMY8); test: Glycosidase inhibition: β-Glucuronidase Bovine liver; settings: read-out: IC50 against mammalian glucuronidase;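 also: bovine liver β-glucuronidase acting on p-nitrophenyl β-D-glucuronide substrate in citric acid/disodium hydrogen phosphate buffer, pH 5.0, 27 °C, mean of triplicate runs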
T8 construct: The assay involved the use of Bovine liver β-glucuronidase; purchased Sigma; host or cells: bovine liver
T8 sequence (A3KMY8 1-652): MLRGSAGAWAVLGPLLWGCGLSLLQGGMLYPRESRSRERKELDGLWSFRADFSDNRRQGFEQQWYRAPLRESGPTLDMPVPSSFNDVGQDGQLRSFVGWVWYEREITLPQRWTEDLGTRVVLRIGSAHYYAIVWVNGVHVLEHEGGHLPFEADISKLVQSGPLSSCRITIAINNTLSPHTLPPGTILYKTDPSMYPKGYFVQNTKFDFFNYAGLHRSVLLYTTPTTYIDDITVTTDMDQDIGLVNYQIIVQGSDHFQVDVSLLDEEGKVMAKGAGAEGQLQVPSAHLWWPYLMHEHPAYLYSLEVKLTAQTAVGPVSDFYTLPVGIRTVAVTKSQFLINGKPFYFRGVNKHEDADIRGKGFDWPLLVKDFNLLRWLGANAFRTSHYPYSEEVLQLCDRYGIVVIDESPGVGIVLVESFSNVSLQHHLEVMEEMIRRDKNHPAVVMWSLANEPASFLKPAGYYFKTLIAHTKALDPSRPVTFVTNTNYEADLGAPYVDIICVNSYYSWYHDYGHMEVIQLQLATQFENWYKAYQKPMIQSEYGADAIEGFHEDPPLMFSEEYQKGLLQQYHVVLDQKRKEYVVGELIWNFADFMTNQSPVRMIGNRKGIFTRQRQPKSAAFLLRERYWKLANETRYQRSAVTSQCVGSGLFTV

[11] = target: T9, rabbit intestinal sucrase (Oryctolagus cuniculus, UniProt P07768); test: Rabbit disaccharidase inhibition assay: sucrase; settings: NI: no inhibition at 0.8 mM
T9 construct: The small intestine was dissected out of a female wild rabbit; from tissue; host or cells: small-intestinal mucosa of a female wild rabbit
Experimental: (§3) Sucrose (8.3 mM), maltose (5 mM) and isomaltose (6.3 mM) substrates were made using 0.2 M Macllvaine (citrate-phosphate) buffer, pH 6.0. The glucose detection reagent was prepared according to the supplier's instructions (Megazyme Ltd). Linearity of the timecourse of the reaction between the glucose detection reagent and glucose was tested using a series of glucose dilutions.
(§4) The method for preparation of mammalian small intestine mucosal disaccharidases was based on Griffiths (1998), omitting ammonium sulphate fractionation steps. The small intestine was dissected out of a female wild rabbit, and opened longitudinally using a scalpel. The mucosal layer was scraped off using the edge of a clean microscope slide, and placed into 3 ml of dH2O. The mucosal layer suspension was centrifuged at around 1000 rpm for 30 seconds to sediment tissue debris. The supernatant ([…]) was removed, and centrifuged again at 3500 rcf for 1 minute to remove fine particulates from suspension. The supernatant was diluted to give 0.2-0.25 mg/ml protein and stored at −30° C.
(§5) Enzyme assays were carried out using 5-15 μl of enzyme preparation, 5 μl of test compound (or dH2O for controls) and 15-25 μl of substrate solution. Reactions were covered using a sheet of plate sealing film, and incubated at 37° C. for 60 minutes. Glucose (from disaccharide hydrolysis) was quantified by adding 200 μl of glucose detection reagent and incubating the reactions for a further twenty-five minutes. Absorbance was measured at 510 nm against control blanks.

[12] = target: rabbit intestinal maltase; test: Rabbit disaccharidase inhibition assay: maltase; settings: NI: no inhibition at 0.8 mM
Experimental: as §3, §4, §5

[13] = target: T10, rabbit intestinal isomaltase (Oryctolagus cuniculus, UniProt P07768); test: Rabbit disaccharidase inhibition assay: isomaltase; settings: NI: no inhibition at 0.8 mM
T10 construct: The small intestine was dissected out of a female wild rabbit; from tissue; host or cells: small-intestinal mucosa of a female wild rabbit
Experimental: as §3, §4, §5

T2 sequence (Q653V7 34-885): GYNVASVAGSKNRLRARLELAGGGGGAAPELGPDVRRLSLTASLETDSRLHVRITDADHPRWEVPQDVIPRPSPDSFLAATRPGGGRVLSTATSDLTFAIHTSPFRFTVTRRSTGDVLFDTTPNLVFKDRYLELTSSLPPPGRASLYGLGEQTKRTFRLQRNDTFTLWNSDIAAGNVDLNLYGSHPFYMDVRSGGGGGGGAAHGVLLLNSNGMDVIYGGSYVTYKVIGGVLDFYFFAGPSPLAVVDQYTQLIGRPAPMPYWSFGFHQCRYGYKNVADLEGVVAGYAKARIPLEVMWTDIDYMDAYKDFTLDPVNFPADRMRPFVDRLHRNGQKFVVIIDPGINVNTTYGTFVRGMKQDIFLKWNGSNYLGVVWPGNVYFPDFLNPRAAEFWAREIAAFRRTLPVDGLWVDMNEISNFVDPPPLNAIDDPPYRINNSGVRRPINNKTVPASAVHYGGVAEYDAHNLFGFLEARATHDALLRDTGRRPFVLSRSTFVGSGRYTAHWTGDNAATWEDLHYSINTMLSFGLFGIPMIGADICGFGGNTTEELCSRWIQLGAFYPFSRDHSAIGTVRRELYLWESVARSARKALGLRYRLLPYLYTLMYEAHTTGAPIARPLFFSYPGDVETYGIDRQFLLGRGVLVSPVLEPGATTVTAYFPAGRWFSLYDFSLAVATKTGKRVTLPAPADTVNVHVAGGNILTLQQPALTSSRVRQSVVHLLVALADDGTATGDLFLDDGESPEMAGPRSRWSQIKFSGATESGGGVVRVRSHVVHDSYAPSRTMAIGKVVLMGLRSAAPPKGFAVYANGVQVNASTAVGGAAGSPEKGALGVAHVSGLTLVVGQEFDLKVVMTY
T6 sequence (Q8J2T0 97-600): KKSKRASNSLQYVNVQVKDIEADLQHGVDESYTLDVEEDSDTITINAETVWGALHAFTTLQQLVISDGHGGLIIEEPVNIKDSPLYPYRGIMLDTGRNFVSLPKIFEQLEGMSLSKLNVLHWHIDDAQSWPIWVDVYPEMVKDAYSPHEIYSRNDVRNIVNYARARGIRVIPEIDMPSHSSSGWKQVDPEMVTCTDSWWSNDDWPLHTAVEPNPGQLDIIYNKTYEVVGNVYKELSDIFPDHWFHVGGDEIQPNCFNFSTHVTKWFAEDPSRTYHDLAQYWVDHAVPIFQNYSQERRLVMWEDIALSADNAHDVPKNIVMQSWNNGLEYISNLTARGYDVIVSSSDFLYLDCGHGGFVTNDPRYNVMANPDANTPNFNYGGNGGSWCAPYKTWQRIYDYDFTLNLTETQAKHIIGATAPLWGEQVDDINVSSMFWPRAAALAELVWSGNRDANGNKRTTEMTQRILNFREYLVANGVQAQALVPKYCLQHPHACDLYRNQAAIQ
T1 sequence (P53341 whole entry): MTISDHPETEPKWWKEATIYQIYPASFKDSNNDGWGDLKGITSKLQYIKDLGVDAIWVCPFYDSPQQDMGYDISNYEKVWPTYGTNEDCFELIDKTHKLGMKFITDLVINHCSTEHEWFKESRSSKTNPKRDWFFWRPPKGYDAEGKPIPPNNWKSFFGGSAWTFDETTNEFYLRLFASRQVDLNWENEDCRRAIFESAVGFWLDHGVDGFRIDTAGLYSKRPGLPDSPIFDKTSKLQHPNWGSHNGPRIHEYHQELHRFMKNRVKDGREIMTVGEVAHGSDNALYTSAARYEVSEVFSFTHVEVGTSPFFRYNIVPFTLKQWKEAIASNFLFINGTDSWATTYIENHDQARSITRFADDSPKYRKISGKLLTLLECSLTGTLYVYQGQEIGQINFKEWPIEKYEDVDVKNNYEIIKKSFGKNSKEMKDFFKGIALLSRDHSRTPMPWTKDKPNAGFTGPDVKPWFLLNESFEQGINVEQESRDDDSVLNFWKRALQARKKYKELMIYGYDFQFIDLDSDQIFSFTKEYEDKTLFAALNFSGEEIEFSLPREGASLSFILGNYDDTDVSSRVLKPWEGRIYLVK
Sequence of α-D-glucosidase (Bacillus) (A0ACH1E9U3 entry or part of it): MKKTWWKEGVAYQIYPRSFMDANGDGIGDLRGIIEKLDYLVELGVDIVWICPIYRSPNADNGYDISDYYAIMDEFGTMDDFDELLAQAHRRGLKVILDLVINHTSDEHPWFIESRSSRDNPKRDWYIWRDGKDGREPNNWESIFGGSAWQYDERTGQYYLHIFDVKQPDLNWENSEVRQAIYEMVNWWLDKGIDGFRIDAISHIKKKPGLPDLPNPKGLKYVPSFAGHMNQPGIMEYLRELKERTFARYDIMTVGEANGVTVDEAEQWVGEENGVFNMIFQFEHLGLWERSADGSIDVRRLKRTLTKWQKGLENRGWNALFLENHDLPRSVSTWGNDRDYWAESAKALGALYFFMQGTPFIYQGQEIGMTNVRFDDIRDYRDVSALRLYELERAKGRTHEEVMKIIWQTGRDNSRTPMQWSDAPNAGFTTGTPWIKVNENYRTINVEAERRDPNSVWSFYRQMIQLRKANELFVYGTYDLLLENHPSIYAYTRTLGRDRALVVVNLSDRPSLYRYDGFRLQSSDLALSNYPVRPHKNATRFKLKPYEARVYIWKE
T10 sequence (P07768 whole entry): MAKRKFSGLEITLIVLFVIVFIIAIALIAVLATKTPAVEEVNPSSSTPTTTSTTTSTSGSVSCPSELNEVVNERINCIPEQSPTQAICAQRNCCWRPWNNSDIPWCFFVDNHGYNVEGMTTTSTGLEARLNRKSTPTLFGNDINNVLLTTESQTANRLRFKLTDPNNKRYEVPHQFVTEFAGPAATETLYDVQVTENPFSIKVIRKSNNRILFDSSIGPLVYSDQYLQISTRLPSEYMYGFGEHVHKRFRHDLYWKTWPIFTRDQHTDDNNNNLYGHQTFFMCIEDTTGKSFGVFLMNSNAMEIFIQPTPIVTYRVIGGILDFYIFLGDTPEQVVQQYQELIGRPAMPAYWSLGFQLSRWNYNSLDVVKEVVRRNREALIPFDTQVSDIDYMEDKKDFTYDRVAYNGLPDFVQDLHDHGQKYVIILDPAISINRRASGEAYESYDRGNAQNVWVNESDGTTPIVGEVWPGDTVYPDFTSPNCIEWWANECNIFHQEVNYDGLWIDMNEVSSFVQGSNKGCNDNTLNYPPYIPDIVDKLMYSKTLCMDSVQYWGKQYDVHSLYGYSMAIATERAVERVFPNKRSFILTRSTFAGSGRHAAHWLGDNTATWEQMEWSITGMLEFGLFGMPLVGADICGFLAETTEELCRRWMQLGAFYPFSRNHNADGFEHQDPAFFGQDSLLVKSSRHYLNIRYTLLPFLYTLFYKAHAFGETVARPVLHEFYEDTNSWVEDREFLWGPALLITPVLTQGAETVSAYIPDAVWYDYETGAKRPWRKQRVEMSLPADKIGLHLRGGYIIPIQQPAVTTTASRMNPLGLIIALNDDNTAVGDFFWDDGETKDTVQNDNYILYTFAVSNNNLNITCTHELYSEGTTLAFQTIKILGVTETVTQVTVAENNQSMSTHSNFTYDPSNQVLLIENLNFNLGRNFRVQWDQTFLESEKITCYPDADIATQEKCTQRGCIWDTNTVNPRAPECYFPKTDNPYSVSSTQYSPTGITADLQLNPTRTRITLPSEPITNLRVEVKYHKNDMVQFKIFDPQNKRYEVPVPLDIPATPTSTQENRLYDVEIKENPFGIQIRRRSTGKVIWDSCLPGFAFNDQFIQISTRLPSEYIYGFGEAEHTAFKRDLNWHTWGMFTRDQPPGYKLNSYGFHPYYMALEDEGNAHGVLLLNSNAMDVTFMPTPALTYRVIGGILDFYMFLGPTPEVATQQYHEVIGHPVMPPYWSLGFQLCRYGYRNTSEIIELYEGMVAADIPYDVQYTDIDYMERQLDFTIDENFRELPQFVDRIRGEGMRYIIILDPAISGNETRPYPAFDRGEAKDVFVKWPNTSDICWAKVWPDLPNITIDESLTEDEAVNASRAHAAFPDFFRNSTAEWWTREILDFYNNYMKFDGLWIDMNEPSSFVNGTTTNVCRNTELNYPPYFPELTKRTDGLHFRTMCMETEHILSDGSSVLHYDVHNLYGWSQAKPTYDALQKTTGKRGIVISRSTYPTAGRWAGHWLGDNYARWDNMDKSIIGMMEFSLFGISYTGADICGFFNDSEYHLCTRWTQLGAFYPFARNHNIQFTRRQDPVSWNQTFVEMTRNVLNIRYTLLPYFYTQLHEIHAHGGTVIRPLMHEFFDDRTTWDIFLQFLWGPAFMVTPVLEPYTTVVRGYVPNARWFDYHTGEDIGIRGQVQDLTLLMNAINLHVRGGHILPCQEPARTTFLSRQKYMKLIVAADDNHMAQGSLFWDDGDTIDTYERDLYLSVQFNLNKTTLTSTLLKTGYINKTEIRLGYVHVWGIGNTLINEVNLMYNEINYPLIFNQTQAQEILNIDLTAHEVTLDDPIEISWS
T9 sequence (P07768 whole entry): as above
T7 sequence (P69328 25-640): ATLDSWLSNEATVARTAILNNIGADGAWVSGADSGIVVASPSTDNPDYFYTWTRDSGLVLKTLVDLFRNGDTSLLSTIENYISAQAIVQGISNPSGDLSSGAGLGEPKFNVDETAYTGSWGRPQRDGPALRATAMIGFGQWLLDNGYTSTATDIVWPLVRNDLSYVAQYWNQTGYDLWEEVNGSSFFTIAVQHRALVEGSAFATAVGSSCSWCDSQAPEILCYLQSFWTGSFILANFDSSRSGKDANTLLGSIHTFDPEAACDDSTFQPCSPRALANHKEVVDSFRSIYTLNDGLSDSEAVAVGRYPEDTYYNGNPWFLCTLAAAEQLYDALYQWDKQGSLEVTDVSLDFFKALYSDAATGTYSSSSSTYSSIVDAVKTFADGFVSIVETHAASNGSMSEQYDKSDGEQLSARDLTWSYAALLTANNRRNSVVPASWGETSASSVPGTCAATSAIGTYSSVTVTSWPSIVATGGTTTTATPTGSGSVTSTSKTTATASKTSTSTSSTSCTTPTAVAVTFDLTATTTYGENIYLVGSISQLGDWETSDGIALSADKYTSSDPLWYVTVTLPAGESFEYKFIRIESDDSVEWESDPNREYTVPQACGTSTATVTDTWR

| SMILES | inhibition at 800 µM [1] | inhibition at 800 µM [2] | inhibition at 800 µM ([3]; compounds tested at 0.8 mM) | IC50 ([3]; read-out: IC50, α-D-glucosidase (Rice)) | inhibition at 800 µM [4] | inhibition at 800 µM [5] | inhibition at 800 µM [6] | % inhibition, N-acetyl-β-D-glucosaminidase (Bovine kidney) ([7]; compounds tested at 0.8 mM) | IC50 ([7]; read-out: IC50 against mammalian 6-N-acetylglucosaminidase (hexosaminidase)) | inhibition at 800 µM [8] | inhibition at 800 µM [9] | IC50 [10] | IC50 [11] | IC50 [12] | IC50 [13] |
| --- | --- | --- | --- | --- | --- | --- | --- | --- | --- | --- | --- | --- | --- | --- | --- |
| O=C(O)[C@@H]1[C@@H](O)[C@H](O)[C@@H](O)CN1CCO [Compound T3, (2S,3R,4R,5S)-3,4,5-Trihydroxy-1-(2-hydroxyethyl)piperidine-2-carboxylic acid] | < 50% | < 50% | 67.2% | 259 µM | < 50% | < 50% | < 50% | 82.0% | 12.2 µM | < 50% | < 50% | 60 µM | – | – | – |
| CCCCN1C[C@H](O)[C@@H](O)[C@H](O)[C@H]1CO [Zavesca, N-butyl-DNJ, reference compound] | – | – | – | – | – | – | – | – | – | – | – | – | 0.22 µM | 0.97 µM | 0.19 µM |
